# According to patent publication US20220143095A1, “NOVEL ANUCLEATED CELLS AND USES THEREOF” (Platelet Biogenesis, Inc., priority 2020, published 2022):
# Legend:
# liver fibrosis = assay: Carbon tetrachloride liver fibrosis mouse model (hydroxyproline analysis); type: in vivo; settings: D30, versus carbon tetrachloride mice without intervention
# Description: In order to determine if PLCs have a beneficial effect in treating liver fibrosis, fibrosis was initiated with 3× weekly application of 0.1 mL/kg injection of carbon tetrachloride diluted in corn oil for 2 weeks; control mice received corn oil itself for those 2 weeks. Carbon tetrachloride applications continued throughout the next step. Mice that received carbon tetrachloride were separated into 3 cohorts at the two-week mark: • 1. Plasmalyte application on D15, 22, 29 (Carbon Tet mice) • 2. rHGF diluted to 30 ug/mL in plasmalyte and dosed daily at 0.3 mg/kg (Peprotech HGF 100-39H-1 mg) • 3. PLC applications of ˜3e10 Platelet Equivalency Units (PEUs)/kg per mouse on D15, 22, 29. D15 was 5e10, D22 was 3e10, D29 was 5e10.
# All mice were sacrificed on D30, livers were excised, and fresh frozen for ˜2-3 hours. Hydroxyproline analysis was done using a hydroxyproline kit (Abcam #ab222941).
# Briefly, livers were trimmed, weighed, and the homogenized in DI water at ˜10 uL water/mg of liver with a Dounce homogenizer. The equivalent of 10 mg (˜100 uL) were removed and digested in equal volume 10N NaOH for 2 hours at 120° C. Samples were cooled and quenched with 100 uL 10N HCl, vortexed, and then spun in a centrifuge for 5 mins at 10,000×g. […] Samples were then processed as the manufacturer directed and analyzed with a plate reader. […]
# [1] = In vivo localization of PLCs/HGF-ePLCs in fibrotic mice; design: species or system Immune-deficient mice (NSG); settings: 30 mins after treatment
# Description: Immune-deficient mice (NSG) were dosed with 0.25 mL/kg of carbon tetrachloride 3 times per week for 2 weeks to initiate liver fibrosis. Control mice were treated with similar volumes of corn oil. On D15, fibrotic mice were treated with the following: Plasmalyte, recombinant HGF (Peprotech Cat #100-39H-1 mg), PLCs that had been generated the previous day and diluted in plasmalyte, or HGF-ePLCs that had been generated the previous day and diluted in plasmalyte. Treatments were allowed to circulate for 30 mins and then mice were sacrificed, exsanguinated, and livers were prepared and frozen for analysis.
# FIG. 32B examines circulating PLCs in blood. Blood from PLC or ePLC treatment mice was analyzed via flow cytometry with a human-specific CD61 antibody (Miltenyi Cat #130-110-754) as an indicator of circulating PLCs/ePLCs. […] In FIG. 32C, fluorescence staining of livers removed from treated fibrotic mice for HGF were performed. Livers were embedded in OCT, sectioned, and mounted on slides. Sections were then fixed in ice-cold Acetone for 10 mins and dried for an additional 20 mins. […] The results shown in FIG. 32D show fluorescence staining of livers removed from treated fibrotic mice for CD61. […]
substance,measurement,setting,value
HGF: recombinant HGF (Peprotech HGF 100-39H-1 mg),collagen per weight of liver,liver fibrosis,apparent reduction of collagen per weight of liver
same,HGF signal in liver (fluorescence staining),[1],increase HGF signal
